# Source: ChEMBL document CHEMBL3507680, “University of Dundee, Gates Library screen for HepG2 cell viability”
# Assay: Human HepG2 cell viability assay in 384 well format
# Format: toxicity, cell-based
# Design: dose 125 nL, time 70.5 hour; cytotoxicity at 70.5 h: concentration not given beside the values
# Details: HepG2 cells, read-out: Inhibition
row,Compound,cytotoxicity at 70.5 h
1,N#Cc1ccc(SCCCO)c(F)c1,-5.69%
2,Cc1cccc(N2CCN(CCS(=O)(=O)c3ccc(Br)cc3)CC2)c1C,-9.15%
3,CCOCc1cccc(NC(=O)C2COCCO2)c1 (configuration not stated),-7.73%
4,COCCN1C[C@H]2CC[C@@H]1CN(Cc1cc(=O)c3cc(C)ccc3[nH]1)C2,-7.09%
5,NC(=O)c1cn(CC2CC2)c(C2CC2)n1,-7.32%
6,CCn1nc2c(cc1=O)CN(CC(=O)N(C)c1nccs1)CC2,25.4%
7,CCNC(=O)NC1CN(CC(=O)NCc2ccccc2C)C[C@@H]1OC (some centres not stated),1.44%
8,CS(=O)(=O)N1CCN(C(=O)c2ccco2)[C@H]2CS(=O)(=O)C[C@H]21,15.1%
9,CN(C)[C@@H]1CCN(c2ncccn2)[C@H]1Cc1ccncc1,-5.48%
10,COC1COC2(CCN(CC3CCOCC3)CC2)C1 (configuration not stated),-11.1%
11,CC(C)(CO)Nc1cc(-c2ccccc2)ncn1,-2.92%
12,CCOc1ccc(CC(=O)N2CCCC2c2cc(C)on2)cc1 (configuration not stated),-3.15%
13,CCn1ccnc1CN1CCN(CC(=O)NC(C)(C#N)C2CC2)CC1 (configuration not stated),-6.12%
14,CC(C)NC(=O)[C@H]1C[C@@H]2[C@@H](C1)OCCN2Cc1ccsc1,-6.32%
15,CC(c1cccc(S(N)(=O)=O)c1)N(C)CCOC(C)(C)C (configuration not stated),-2.34%
16,CN(C)CCNC(=O)c1ccc(OC2CCN(S(C)(=O)=O)CC2)c(Cl)c1,-9.41%
17,CC/N=c1\nc(NCC)nc2n1C(O)(Nc1cccc(C)c1C)CS2 (configuration not stated),-6.29%
18,Cn1ccnc1C1CCN(C(=O)COCC(F)(F)C(F)F)CC1,-14.1%
19,COc1cc(C)ccc1OCc1nc(C(=O)N2CCCNC(=O)C2)co1,-5.88%
20,Cc1csc(CN(C)CCCOc2cccc(C#N)c2)n1,13.7%
21,c1cnc(-c2cnc(N3CCSCC3)nc2C2CC2)cn1,-15.9%
22,NC(=O)C(NC1CCN(CC2CCCCC2)CC1)c1ccccc1 (configuration not stated),-4.82%
23,CC(C)N1[C@H](Cn2cncn2)C[C@@H]2CN(Cc3ccsc3)CC[C@@H]21,-2.74%

row,Compound,cytotoxicity at 70.5 h
1,NC(=O)NC(=O)CCn1ccc(-c2ccc(F)cc2)n1,-1.22%
2,Cc1ccc2c(c1)C1(CCN(C(N)=O)CC1)CN2CC1CC1,-1.07%
3,CCCc1nc(C(=O)N2C[C@H](CO)C[C@H](CN3CCOCC3)C2)cs1,-8.72%
4,CCOCCNC(=O)CCC1CCCO1 (configuration not stated),35.5%
5,c1coc(COCc2ncn3c2CN(Cc2cccs2)CCC3)c1,-2.67%
6,O=C(NC(CN1CCCC1)c1ccccc1)c1c(O)cc(F)cc1F (configuration not stated),-1.92%
7,CC(C)c1nc(O)c2nnn(C[C@H]3CCCN(Cc4ccsc4)C3)c2n1,-1.06%
8,CC[C@@H](CO)Nc1nccc(-c2c[nH]c3cc(C(=O)OC)ccc23)n1,-2.08%
9,CC(=O)c1c(F)cccc1N1CCC(NS(=O)(=O)c2ccccc2)CC1,1.15%
10,CC(=O)Nc1nc(C(=O)NC(C)c2ccc3c(c2)OCCO3)cs1 (configuration not stated),-11.4%
11,CC(=O)N(Cc1ncc(C)o1)C1CCN(Cc2cccnc2)C1 (configuration not stated),2.44%
12,CC(C)(C)OC(=O)N1CC(CC(=O)NCc2ccnc(C3CC3)c2)C1,-8.99%
13,COc1ccc(NCc2ccccc2N2CCN(C(C)=O)CC2)cn1,0.712%
14,CN(C)[C@H]1C[C@@H](Cc2cc(-c3ccc(F)cc3)on2)C1(C)C,-0.292%
15,COc1cc(NC(=O)c2ccc(F)cc2Cl)c(C(=O)N(C)C)cc1OC,-8.85%
16,Cc1cs/c(=N\C(=O)c2c3c(nc4onc(C)c24)CCC3)[nH]1,-19.5%
17,Cc1nn(C)c(C)c1C1CCCN1CCOc1ccccc1C#N (configuration not stated),1.39%
18,Nc1nc2c(c(NCc3ccncc3)n1)CCCC2,0.39%
19,C1=C(CNC2CCc3ncnn3C2)COc2ccccc21 (configuration not stated),-9.66%
20,CN(CCc1ccccn1)C(=O)CCC1CCCN(c2cnccn2)C1 (configuration not stated),2.36%
21,COc1ccccc1-n1c(O)cc(C)c(C#N)c1=O,-1.09%
22,Cc1ccc2nc(C)cc(NCCNS(=O)(=O)c3cccnc3)c2c1,-2.02%
23,O=c1ccc2c(n1CCN1CCCC1)CCN(c1ncccn1)CC2,-4.06%

row,Compound,cytotoxicity at 70.5 h
1,O=C1N(CCCc2ccccc2)CCCC1(O)CN1CCC(CO)CC1 (configuration not stated),-9.35%
2,CN(C)Cc1nnc(C(=O)N(C)Cc2ccc(F)cc2)o1,-4.17%
3,CC(NS(=O)(=O)N(C)C(C)C)C(=O)N(C)C (configuration not stated),-4.6%
4,COC[C@@H]1CCCN1C(=O)CCc1c(C)nn(C)c1C,-2.05%
5,Cc1cnn(CC2CCCN2C(=O)c2cc3ccccc3[nH]2)c1 (configuration not stated),8.1%
6,CCCNc1nc(CS(=O)(=O)c2ccccc2)cs1,-7.26%
7,c1ccc(COCCN2CCc3[nH]cnc3C2c2ccco2)cc1 (configuration not stated),-4.41%
8,Cc1cc(N2CCc3c(nc(C(C)C)n3C)C2)nc(N)n1,-10.6%
9,O=C(O)c1ccnc(SCC(=O)c2ccccc2)c1,14.5%
10,Cc1ccc(CN(Cc2cccnc2)C2CC(C)(C)NC(C)(C)C2)s1,9.23%
11,Cc1ccc(CNCc2nnc3n2CC(C(F)(F)F)CC3)o1 (configuration not stated),2.88%
12,CC(C)c1ccnc(N[C@H]2COC[C@@H]2N2CCCC2)n1,-15.2%
13,Cc1cnc(CN2C[C@H]3C[C@H](Oc4ccccc4)C[C@H]3C2)cn1,34.2%
14,NCc1cccc(-c2cccnc2C(=O)NCCN2CCOCC2)c1,-9.72%
15,CN(C)c1ncc(CN2CCC(O)(c3ccccc3F)CC2)cn1,-2.07%
16,COC(=O)N1CCCC(C(=O)N(C)C)C1 (configuration not stated),-9.72%
17,Cc1nn(C)c(N(C)C)c1CNCc1cccnc1OC(C)C,21.9%
18,O=c1nc(SCc2ccncc2)c2c(n1CCO)CCC2,-0.878%
19,Cc1ccc(-c2nc(CN3CCn4c(C)nnc4C3)co2)cc1,-6.98%
20,CN(C)C(c1ccccn1)[C@H]1CC[C@H](CNC(=O)C2CCCC2)CC1 (some centres not stated),-2.3%
21,c1cnc(-c2noc(C3CN(Cc4ccc5c(c4)CCO5)C3)n2)nc1,-2.95%
22,CCC(CN1CCOCC1)n1cncc1-c1ccc2c(c1)CCCN2C (configuration not stated),-6.78%
23,COCC1CN(CC2CC2)Cc2nn(C)cc21 (configuration not stated),13.1%

row,Compound,cytotoxicity at 70.5 h
1,CN(C)C(=O)[C@H]1C[C@H]2OCC[C@H]2N(CCOc2ccc(Cl)cc2)C1,-3.17%
2,COc1ccccc1CC(=O)N(C)Cc1cc(C)on1,-3.86%
3,Cc1ccc(NC2CCN(C(=O)c3ccc(F)cc3Cl)CC2)nn1,-3.69%
4,CN1C[C@@H](C(=O)N2CCCOCC2)[C@@]2(CCc3ccccc3C(=O)N2)C1,-1.32%
5,COCCC(=O)N(CCC#N)c1ccc(C)c(C)c1,-3.89%
6,CC(C)n1cc(CN2CCCN(C(=O)c3cccn3C)CC2)cn1,-2.47%
7,O=c1[nH]nc2c(S(=O)(=O)N3CCCCC3)cccn12,-0.253%
8,CC(C)c1nnc(CN2C(=O)OC[C@@H]2C(C)C)o1,-5.17%
9,Cc1ncc(CN2CCC(c3nc4cc(Cl)ccc4o3)CC2)s1,22.3%
10,c1ccc(Sc2ccc3c(c2)OCO3)c(CNC2=NCCN2)c1,-0.794%
11,CCC(C)[C@H](NC(=O)c1cc(Br)ccc1-n1cnnn1)C(=O)OC (some centres not stated),42%
12,CCN(Cc1nc(COC)no1)C(=O)CCn1c(C)cc2ccccc21,-0.00353%
13,Cc1cc(C)nc(C2CCCN2C(=O)c2cnco2)n1 (configuration not stated),33.6%
14,CO[C@@H]1CC[C@H]2[C@H]1OCCN2C(=O)c1ccc(C)o1,46.9%
15,Cn1ncc2c1CCCC2NCc1cccc(C(F)(F)F)c1 (configuration not stated),-5.81%
16,CCCC(NC(=O)NCc1cccc(N(C)C)n1)c1ccccn1 (configuration not stated),-18.8%
17,COc1cc2nc(NCc3cc(C)on3)nc(N)c2cc1OC,34.1%
18,CN(C)C(CNCc1nc(-c2ccsc2)no1)c1cccc(F)c1 (configuration not stated),-10.2%
19,O=C(C1CC1)N1CCOC2(CCNCC2)C1,-10.9%
20,CC(C)NC(=O)N1CCC2(CC(=O)N(c3ccccc3)C2)C1 (configuration not stated),17.9%
21,COc1c(CNCCNC(=O)c2ccccc2)c(C)nn1C,-1.1%
22,CC(Nc1ccc(C(F)(F)F)cc1C#N)c1cccc(S(N)(=O)=O)c1 (configuration not stated),9.79%
23,Cc1noc(C[C@@H]2COC[C@H]3CN(S(=O)(=O)C4CC4)C[C@@H]23)n1,-5.01%

row,Compound,cytotoxicity at 70.5 h
1,CNC(=O)NC(=O)CN1CCCC(Cc2ccccc2OC)C1 (configuration not stated),-6.62%
2,Cc1ccc([C@@H]2CN(C(=O)c3ccoc3C)C[C@H]2NC(=O)C2CC2)cc1,30.5%
3,CC(O)CN1CCC(CNCc2cccc(C(F)(F)F)c2)CC1 (configuration not stated),2.27%
4,Cn1ccnc1CN1CCN(CC(O)c2ccc(F)c(F)c2)CC1 (configuration not stated),13.5%
5,CCCn1nc2c(cc1=O)CN(Cc1nc(-c3ccoc3)no1)CC2,-2.82%
6,Cc1ncnc2c1CCN(C(=O)c1cccc(F)c1)CC2,-5.99%
7,c1cc(CN2C[C@H](OCC3CCOCC3)[C@H]3COC[C@H]32)cs1,-7.76%
8,O=C(Nc1ccc(F)cc1)N1C[C@H]2C[C@H](C(=O)N3CCCC3)[C@@H](C1)O2,-9.47%
9,CCOc1ccc(C(=O)CC(SC2CCCCC2)C(=O)O)cc1 (configuration not stated),-6.29%
10,CCc1nc(Nc2cccc(C(=O)NC)c2)c2c(n1)c(C)nn2CC,-11%
11,CC(C)NC(=O)O[C@H]1COCCN(c2nc3ccccc3s2)C1,-5.43%
12,CC(C)(C)C(=O)NS(=O)(=O)c1ccc(C#N)cc1C(F)(F)F,-14.8%
13,Cn1cc(CN2CCCC23CCN(S(C)(=O)=O)CC3)cn1,-2.11%
14,CC(C)(C)NS(=O)(=O)c1ccccc1CNCc1cccc(O)c1,3.89%
15,CCC1=N[C@@]2(CC[C@@H]3CN(C(=O)Nc4ccc(F)cc4)C[C@@H]32)C(=O)N1,0.571%
16,CC(C)C(C)NC(=O)Nc1cccc2c1CCN(S(C)(=O)=O)C2 (configuration not stated),-2.03%
17,COCCN(C)Cc1ccc(OC)c(OC(F)F)c1,-5.27%
18,Cc1nc(C2CCCN2C(=O)CC2CCCC2)ncc1C(N)=O (configuration not stated),-4.71%
19,O=C(CC1CC1)N[C@@H]1CN(Cc2ccoc2)C[C@@H]2CCCO[C@@H]21,14%
20,COc1ccccc1OC1CCN(C(=O)C2CCCN(C)C2)CC1 (configuration not stated),-8.14%
